Test results as given in publication PMC9012672 (Clinical cancer research : an official journal of the …, 2022).

Columns and labels:
[1] = CodeBreaK 100 multiple-dose PK; format: in vivo, human; settings: for AUC(0-t) / Cmax / Tmax / half-life: human, plasma, po
patients with NSCLC = assay: CodeBreaK 100; format: in vivo
rats = assay: 3-month rat toxicology study; format: in vivo
CYP3A4 = CYP3A4 (Homo sapiens, UniProt P08684); assay: Metabolism of sotorasib; format: in vitro ADME
[2] = Clinical pharmacology: elimination, food effect, covariate effects on exposure; settings: human, in vivo
Beagle dogs = settings: 3-month dog study; cited from earlier work
[3] = 204 patients with NSCLC, 960 mg daily

CYP3A4, sequence (P08684 whole entry): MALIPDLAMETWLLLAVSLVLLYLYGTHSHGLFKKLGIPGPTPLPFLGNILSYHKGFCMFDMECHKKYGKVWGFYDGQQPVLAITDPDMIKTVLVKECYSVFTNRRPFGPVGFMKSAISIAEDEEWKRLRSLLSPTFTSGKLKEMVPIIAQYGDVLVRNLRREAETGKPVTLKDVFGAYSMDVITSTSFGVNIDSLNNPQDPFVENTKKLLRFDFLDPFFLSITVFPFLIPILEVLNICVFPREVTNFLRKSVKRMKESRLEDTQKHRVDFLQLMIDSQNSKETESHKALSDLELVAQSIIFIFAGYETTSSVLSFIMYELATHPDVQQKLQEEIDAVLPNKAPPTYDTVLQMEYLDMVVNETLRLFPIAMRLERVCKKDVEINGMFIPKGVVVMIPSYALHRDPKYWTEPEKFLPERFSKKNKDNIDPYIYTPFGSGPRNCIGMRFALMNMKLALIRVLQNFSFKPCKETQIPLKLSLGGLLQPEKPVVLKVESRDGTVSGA

SMILES: C=CC(=O)N1CCN(c2nc(=O)n(-c3c(C)ccnc3C(C)C)c3nc(-c4c(O)cccc4F)c(F)cc23)[C@@H](C)C1 [sotorasib]
- Systemic exposures (AUC0–24h and Cmax) across dose levels ([1]; daily doses ranging from 180 mg to 960 mg): similar
- AUC(0-t) ([1]; 180 mg): 31700 ng·h/mL
- Cmax ([1]; 180 mg): 6440 ng/mL
- Tmax ([1]; 180 mg): 0.73 h
- half-life ([1]; 180 mg): 5.13 h
- AUC(0-t) ([1]; 360 mg): 38900 ng·h/mL
- Cmax ([1]; 360 mg): 6310 ng/mL
- half-life ([1]; 360 mg): 5.53 h
- AUC(0-t) ([1]; 720 mg): 42100 ng·h/mL
- Cmax ([1]; 720 mg): 5450 ng/mL
- Tmax ([1]; 720 mg): 1.1 h
- half-life ([1]; 720 mg): 4.75 h
- AUC(0-t) ([1]; 960 mg): 32400 ng·h/mL
- Cmax ([1]; 960 mg): 5390 ng/mL
- Tmax ([1]; 960 mg): 1.1 h
- half-life ([1]; 960 mg): 5.07 h
- Adverse event: abdominal pain (patients with NSCLC; [3]): 15%
- Adverse event: constipation (patients with NSCLC; [3]): 16%
- Adverse event: cough (patients with NSCLC; [3]): 20%
- Adverse event: decreased appetite (patients with NSCLC; [3]): 13%
- Adverse event: diarrhea (patients with NSCLC; [3]): 42%
- Adverse event: dyspnea (patients with NSCLC; [3]): 16%
- Adverse event: edema (patients with NSCLC; [3]): 15%
- Adverse event: musculoskeletal pain (patients with NSCLC; [3]): 35%
- Adverse event: pneumonia (patients with NSCLC; [3]): 12%
- Adverse event: rash (patients with NSCLC; [3]): 12%
- Adverse event: vomiting (patients with NSCLC; [3]): 17%
- Discontinuation due to hepatotoxicity (patients with NSCLC; [3]): 4.9%
- Permanent discontinuation due to an AE (patients with NSCLC; [3]): 9%
- Serious AE: diarrhea (patients with NSCLC; [3]): 2%
- Serious AE: hepatotoxicity (patients with NSCLC; [3]): 3.4%
- Serious AE: pneumonia (patients with NSCLC; [3]): 8%
- Serious AEs, patients (patients with NSCLC; [3]): 50%
- Adverse event: hepatotoxicity (patients with NSCLC; 204 patients with NSCLC, 960 mg daily, grouped term): 25%
- Resolution of hepatotoxicity after dose reduction or interruption (patients with NSCLC; cases with dose reduction or interruption): 91%
- Patients with hepatotoxicity requiring dose reduction or interruption (patients with NSCLC; of the 50 patients with an event of hepatotoxicity (n=23)): 46%
- Patients with hepatotoxicity treated with systemic corticosteroids (patients with NSCLC; of the 357 patients treated with 960 mg daily): 5%
- Most common adverse reactions (≥20%) (patients with NSCLC; patients with NSCLC in CodeBreaK 100): diarrhea, musculoskeletal pain, nausea, fatigue, hepatotoxicity, and cough
- Hepatotoxicity events that were severe (Grade 3 or 4) (patients with NSCLC; primary safety population): 12%
- Renal toxicity events (patients with NSCLC; primary safety population): rare, mild to moderate, and did not require dose reduction or discontinuation
- Interstitial lung disease/pneumonitis (patients with NSCLC; primary safety population, three patients, one fatal case): 1.5%
- Most notable toxicity (renal toxicity) findings (rats; 3-month rat study): renal tubular degeneration/necrosis and increased kidney weight with biomarkers of renal tubular injury
- Recovery of renal toxicity (rats; after two months): Partial recovery
- Main metabolising enzyme (CYP3A4): primarily metabolized by CYP3A4
- Food effect on administration [2]: may be taken with or without food
- Route of elimination [2]: mainly eliminated via the fecal route with minor renal excretion
- Renal toxicity (Beagle dogs): not identified
